Laboratory results: patent US20240196898A1, “INSANITARY INSECT PEST CONTROL METHOD USING CONDENSED HETEROCYCLIC COMPOUND” (SUMITOMO CHEMICAL COMPANY, LIMITED, priority 2021, published 2024)

Columns and labels:
Format in all cases: in vivo
[1] = tested on: Formosan subterranean worker termites (Coptotermes formosanus); experiment: Test Example 4: treated filter paper contact test, 1 hour exposure, Formosan subterranean worker termites; details: Coptotermes formosanus workers, after 3 days, read-out: Moribund and mortal rates (%) after 3 days; for mortality at 300 mg/m2: 300 mg/m^2 treated per area; for mortality at 500 mg/m2: 500 mg/m^2 treated per area; for mortality at 1000 mg/m2: 1,000 mg/m^2 treated per area
Experimental: 0.6 mL of an acetone solution containing prescribed amount of the present compound A, the present compound B, comparative compound 1, comparative compound 2, comparative compound 3, or comparative compound 4 was added dropwise on a filter paper having a diameter of 82 mm, followed by air drying. The filter paper was attached to a plastic petri dish having a diameter of 90 mm without gaps by adding dropwise 1.4 mL of water, and then Formosan subterranean worker termites (Coptotermes formosanus) were released and the vial was sealed with a lid, followed by exposure for 1 hours. After exposure for 1 hour, Formosan subterranean worker termites were transferred to a new plastic cup with bottom lined with the filter paper, followed by feeding water. After 3 days, the number of dead and moribund individuals of Formosan subterranean worker termites was examined, and moribund and mortal rates (%) were determined by the equation 4 below. Dead individuals are completely immobile individuals, and moribund individuals are individuals who are flightless and non-ambulatory.
Moribund and mortal rates (%)={(number of dead individuals+number of moribund individuals)/number of tested individuals}×100 (Equation 4)
The amount to be treated per area was set at 1,000, 500 and 300 mg/m^2.

[2] = tested on: German cockroaches (Blattella germanica); experiment: Test Example 1: vial inner-wall residual contact test, German cockroaches; details: German cockroach, read-out: Moribund and mortal rates (%); for mortality at 5 mg/m2: 5 mg/m^2 treated per area; for mortality at 50 mg/m2: 50 mg/m^2 treated per area; for mortality at 150 mg/m2: 150 mg/m^2 treated per area; for mortality at 300 mg/m2: 300 mg/m^2 treated per area; for mortality at 1000 mg/m2: 1,000 mg/m^2 treated per area
Experimental: In a 20 mL volume vial, 0.2 mL of an acetone solution (containing 0.09% of a surfactant added therein) which contains prescribed amount of the present compound A, the present compound B, comparative compound 1, comparative compound 2, comparative compound 3, or comparative compound 4 was added dropwise and the inner wall of the vial was coated homogeneously with the chemicals and then air-dried. Thereafter, five German cockroaches (Blattella germanica) were released and the vial was sealed with a lid. […] Dead individuals are completely immobile individuals, and moribund individuals are individuals who cannot get up when turned on their backs, and are non-ambulatory.
Moribund and mortal rates (%)={(number of dead individuals+number of moribund individuals)/number of tested individuals}×100 (Equation 1)
The amount to be treated per area was set at 1000, 300, 150, 50 and 5 mg/m^2.

[3] = tested on: African malaria mosquitos (Anopheles gambiae); experiment: Test Example 2: vial inner-wall contact test, 50 minutes exposure, female adult African malaria mosquitos; details: Anopheles gambiae female adults, after 4 days, read-out: Moribund and mortal rates (%) after 4 days; for mortality at 5 mg/m2: 5 mg/m^2 treated per area; for mortality at 10 mg/m2: 10 mg/m^2 treated per area; for mortality at 300 mg/m2: 300 mg/m^2 treated per area
Experimental: In a 250 mL volume vial, 1.0 mL of an acetone solution (containing 0.09% of a surfactant added therein) which contains prescribed amount of the present compound A, the present compound B, comparative compound 1, comparative compound 2, comparative compound 3, or comparative compound 4 was added dropwise and the inner wall of the vial was coated homogeneously with the chemicals and then air-dried. Thereafter, female adult African malaria mosquitos (Anopheles gambiae) were released and the vial was sealed with a lid, followed by exposure for 50 minutes. 50 Minutes after exposure, African malaria mosquitos were transferred to a new plastic cup, followed by feeding sugar water. After 4 days, the number of dead and moribund individuals of African malaria mosquitos was examined, and moribund and mortal rates (%) were determined by the equation 2 below. Dead individuals are completely immobile individuals, and moribund individuals are individuals who are flightless and non-ambulatory.
Moribund and mortal rates (%)={(number of dead individuals+number of moribund individuals)/number of tested individuals}×100 (Equation 2)
The amount to be treated per area was set at 300, 10 and 5 mg/m^2.

[4] = tested on: little red worker ants (Monomorium pharaonis); experiment: Test Example 3: vial inner-wall contact test, 1 hour exposure, little red worker ants; details: Monomorium pharaonis workers, after 1 day, read-out: Moribund and mortal rates (%) after 1 day; for mortality at 5 mg/m2: 5 mg/m^2 treated per area; for mortality at 100 mg/m2: 100 mg/m^2 treated per area; for mortality at 300 mg/m2: 300 mg/m^2 treated per area
Experimental: In a 20 mL volume vial, 0.2 mL of an acetone solution (containing 0.09% of a surfactant added therein) which contains prescribed amount of the present compound A, the present compound B, comparative compound 1, comparative compound 2, comparative compound 3, or comparative compound 4 was added dropwise and the inner wall of the vial was coated homogeneously with the chemicals and then air-dried. Thereafter, little red worker ants (Monomorium pharaonis) were released and the vial was sealed with a lid. After 1 hour, little red worker ants in the vial were transferred to a new plastic cup, followed by feeding […] sucrose water. After 1 day, the number of dead and moribund individuals was examined, and moribund and mortal rates (%) were determined by the equation 3 below. Dead individuals are completely immobile individuals, and moribund individuals are individuals who cannot get up when turned on their backs, and are non-ambulatory.
Moribund and mortal rates (%)={(number of dead individuals+number of moribund individuals)/number of tested individuals}×100 (Equation 3)
The amount to be treated per area was set at 300, 100 and 5 mg/m^2.

Compound	mortality at 300 mg/m2 [1] [%]	mortality at 500 mg/m2 [1] [%]	mortality at 1000 mg/m2 [1] [%]	mortality at 5 mg/m2 [2] [%]	mortality at 50 mg/m2 [2] [%]	mortality at 150 mg/m2 [2] [%]	mortality at 300 mg/m2 [2] [%]	mortality at 1000 mg/m2 [2] [%]	mortality at 5 mg/m2 [3] [%]	mortality at 10 mg/m2 [3] [%]	mortality at 300 mg/m2 [3] [%]	mortality at 5 mg/m2 [4] [%]	mortality at 100 mg/m2 [4] [%]	mortality at 300 mg/m2 [4] [%]
CCS(=O)(=O)c1cc(C)cnc1-c1nc2cc(S(=O)(=O)C(F)(F)F)ccc2o1 [Comparative compound 4]	10	10	100	10	10	20	30	100	8	15	26	10	20	100
CCS(=O)(=O)c1cc(C2CC2)cnc1-c1nc2cc([S+]([O-])C(F)(F)F)ccc2o1 (stereo not drawn) [Present compound A]	100	100	100	100	100	100	100	100	100	100	100	100	100	100
CCS(=O)(=O)c1cc(C(F)(F)F)cnc1-c1nc2cc([S+]([O-])C(F)(F)F)ccc2o1 (stereo not drawn) [Comparative compound 1]	10	30	100	10	30	50	50	100	3	43	53	30	40	100
CCS(=O)(=O)c1cc(C2CC2)cnc1-c1nc2cc(S(=O)(=O)C(F)(F)F)ccc2o1 [Present compound B]	100	100	100	100	100	100	100	100	100	100	100	100	100	100
CCS(=O)(=O)c1cc(C(F)(F)F)cnc1-c1nc2cc(S(=O)(=O)C(F)(F)F)ccc2o1 [Comparative compound 2]	10	20	100	10	10	20	50	100	8	13	15	20	50	100
CCS(=O)(=O)c1cc(C)cnc1-c1nc2cc([S+]([O-])C(F)(F)F)ccc2o1 (stereo not drawn) [Comparative compound 3]	10	10	100	10	30	30	40	100	6	7	35	10	30	100
